# Measured values published in patent publication US8642774B2, “Compounds” (Boehringer Ingelheim International GmbH, priority 2011, dated 2014).
# pEC50: −log10 of the molar value.
# Molecular target: T1, human recombinant mGluR5 (Homo sapiens, UniProt P41594)
# T1 construct: expressed in transfected cells; host or cells: HEK 293 cell line, cultured with tetracycline, hygromycin and geneticin; tetracycline is withdrawn 3-7 days before the assay
# Assay: positive modulation of mGluR5, calcium based FLIPR assay
# Format: cell-based
# Conditions: not given
# Procedure, shortened: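 HEK 293 cells expressing human recombinant mGluR5, tetracycline-free before assay, loaded with Calcium-4 dye in Ringer solution pH 7.4. Compounds (1% DMSO final) added for 5 min, then glutamate at about 5% of maximal effect; FLIPR peak Ca signal scaled between 1% DMSO (100%) and 10 μM CDPPB (200%) controls, EC50 by nonlinear regression.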
# T1 sequence (P41594 21-1212): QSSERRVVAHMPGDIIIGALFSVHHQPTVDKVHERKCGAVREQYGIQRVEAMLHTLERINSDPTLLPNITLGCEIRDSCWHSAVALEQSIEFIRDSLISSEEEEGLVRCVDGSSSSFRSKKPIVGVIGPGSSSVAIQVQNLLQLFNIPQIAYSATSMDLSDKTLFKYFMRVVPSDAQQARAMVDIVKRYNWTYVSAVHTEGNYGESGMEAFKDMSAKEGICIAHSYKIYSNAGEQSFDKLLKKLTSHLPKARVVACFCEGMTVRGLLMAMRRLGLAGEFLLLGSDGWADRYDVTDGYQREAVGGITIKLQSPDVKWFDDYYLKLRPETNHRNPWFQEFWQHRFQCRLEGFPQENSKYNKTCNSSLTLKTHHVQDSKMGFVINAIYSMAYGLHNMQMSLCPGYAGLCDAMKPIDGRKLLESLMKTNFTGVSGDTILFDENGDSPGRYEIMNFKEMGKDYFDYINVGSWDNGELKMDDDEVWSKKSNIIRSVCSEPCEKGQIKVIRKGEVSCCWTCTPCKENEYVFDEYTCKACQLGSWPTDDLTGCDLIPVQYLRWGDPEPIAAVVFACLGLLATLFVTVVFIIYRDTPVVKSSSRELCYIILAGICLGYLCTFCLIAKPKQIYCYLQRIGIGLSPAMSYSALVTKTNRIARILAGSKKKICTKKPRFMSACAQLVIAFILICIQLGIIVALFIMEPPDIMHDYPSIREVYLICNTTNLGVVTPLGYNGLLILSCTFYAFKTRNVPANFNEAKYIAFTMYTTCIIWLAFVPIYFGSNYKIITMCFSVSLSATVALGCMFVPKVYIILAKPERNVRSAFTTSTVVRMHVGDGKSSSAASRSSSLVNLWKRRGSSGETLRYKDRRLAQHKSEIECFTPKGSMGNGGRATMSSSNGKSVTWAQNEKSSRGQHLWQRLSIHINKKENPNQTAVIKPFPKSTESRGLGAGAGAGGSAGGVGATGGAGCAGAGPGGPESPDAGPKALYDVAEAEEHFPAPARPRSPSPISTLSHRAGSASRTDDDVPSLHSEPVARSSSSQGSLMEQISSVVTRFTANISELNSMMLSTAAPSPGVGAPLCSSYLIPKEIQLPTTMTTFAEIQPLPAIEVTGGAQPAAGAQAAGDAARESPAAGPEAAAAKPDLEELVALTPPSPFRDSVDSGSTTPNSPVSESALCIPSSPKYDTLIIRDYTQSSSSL
row,SMILES,pEC50
1,O=C(Cn1nc(-c2ccc(F)cc2)nc1-c1ccc(F)cc1)N1CCC(Nc2ccccc2)CC1 [Example 7.02.20.],5.82

# Same assay, conditions: EC50 of the modulation; HEK 293 cell line expressing human recombinant mGluR5; peak height of Ca fluorescence signal after glutamate at approx. 5% basal stimulation; read-out: EC50
row,SMILES,pEC50
1,O=C(Cn1nc(-c2ccc(F)cc2)nc1-c1ccc(F)cc1)N1CCN(c2nc3ccccc3o2)CC1 [Example 7.03.047.],6.85
2,CCCc1nc(-c2ccc(F)c(C)c2)nn1CC(=O)N1CCc2nc(N)sc2CC1 [Example 7.03.072.],6.39
3,Cc1nc2c(s1)CCN(C(=O)Cn1nc(-c3ccc(F)cn3)nc1-c1ccc(F)cc1)CC2 [Example 7.03.116.],6.41
4,O=C(Cn1nc(-c2ccc(F)cc2)nc1-c1ccc(F)cc1)N1CC(c2ccccn2)C1 [Example 7.02.72.],6.11
5,Cc1nnc(C2CCN(C(=O)Cn3nc(-c4ccc(F)cc4)nc3-c3ccc(F)cc3)CC2)o1 [Example 7.02.59.],6.35
6,Cc1nc2c(s1)CN(C(=O)Cn1nc(-c3ccc(F)cc3)nc1-c1ccc(F)cc1)C2 [Example 7.02.23.],6.56
7,O=C(Cn1nc(-c2ccc(F)cc2)nc1-c1ccc(F)cc1)N1CCC(c2nnco2)CC1 [Example 7.03.034.],6.04
8,COc1ccc2c(c1)CCN(C(=O)Cn1nc(-c3ccc(F)cc3)nc1-c1ccc(F)cc1)C2 [Example 7.02.44.],6.68
9,O=C(Cn1nc(-c2ccc(F)cc2)nc1-c1ccc(F)cc1)N1CCC(c2ncc(Cl)cn2)CC1 [Example 7.02.50.],6.67
10,O=C(Cn1nc(-c2ccc(F)cc2)nc1-c1ccc(F)cc1)N1CCc2nc(N3CCOCC3)sc2CC1 [Example 7.04.05.],5.78
11,O=C(Cn1nc(-c2ccc(F)cc2)nc1-c1ccc(F)cc1)N1CCC(c2ncccn2)CC1 [Example 7.03.012.],5.83
12,Cc1nc2c(s1)CN(C(=O)Cn1nc(-c3ccc(OC(F)F)cc3)nc1-c1ccccc1)C2 [Example 7.03.128],7.07
13,Cc1nc(N2CCN(C(=O)Cn3nc(-c4ccc(OC(F)F)cc4)nc3-c3ccccc3)CC2)no1 [Example 7.03.135],7.72
14,Nc1nc2c(s1)CCN(C(=O)Cn1nc(-c3ccc(F)cc3)nc1-c1ccc(F)cc1)CC2 [Example 7.03.013.],6.85
15,COc1ccc2c(c1)CCN(C(=O)Cn1nc(-c3ccc(F)cc3)nc1-c1ccc(F)cc1)CC2 [Example 7.02.39.],6.55
16,CCC(C)c1nc(-c2ccc(F)c(C)c2)nn1CC(=O)N1CCc2nc(N)sc2CC1 (centres unmarked) [Example 7.03.085.],6.19
17,O=C(Cn1nc(-c2ccc(F)cc2)nc1-c1ccc(F)cc1)N1CCN(c2nnc(C(F)(F)F)s2)CC1 [Example 7.02.68.],6.70
18,O=C(Cn1nc(-c2ccc(F)cc2)nc1-c1ccc(F)cc1)N1CCN(c2noc3ccccc23)CC1 [Example 7.02.73.],6.83
19,O=C(Cn1nc(-c2ccc(F)cc2)nc1-c1ccc(F)cc1)N1CCN(c2cc(F)ccn2)C(=O)C1 [Example 7.03.016.],7.00
20,CC1CN(c2ccccn2)CCN1C(=O)Cn1nc(-c2ccc(F)cc2)nc1-c1ccc(F)cc1 (centres unmarked) [Example 7.03.014.],6.20
21,COc1ccc(-c2nc(-c3ccccc3)n(CC(=O)N3Cc4nc(C)oc4C3)n2)cc1 [Example 7.03.132],7.02
22,Cc1nc2c(s1)CCN(C(=O)Cn1nc(-c3ccc(F)c(C)c3)nc1C1CCC(C)CC1)CC2 (centres unmarked) [Example 7.03.090.],6.38

row,SMILES,pEC50
1,O=C(Cn1nc(-c2ccc(F)cc2)nc1-c1ccc(F)cc1)N1Cc2cn[nH]c2C1 [Example 7.02.04.],6.09
2,Cc1nc2c(s1)CN(C(=O)Cn1nc(-c3ccc(F)c(C)c3)nc1-c1ccccc1)CC2 [Example 7.02.84.],6.94
3,Cc1nc(C2CCN(C(=O)Cn3nc(-c4ccc(F)cc4)nc3-c3ccc(F)cc3)CC2)oc1C [Example 7.03.003.],6.07
4,O=C(Cn1nc(-c2ccc(F)cc2)nc1-c1ccc(F)cc1)N1CCC(c2ncno2)CC1 [Example 7.02.57.],5.84
5,COc1ccc2c(n1)CCN(C(=O)Cn1nc(-c3ccc(F)cc3)nc1-c1ccc(F)cc1)CC2 [Example 7.03.023.],6.73
6,Cc1nc2c(o1)CN(C(=O)Cn1nc(-c3ccc(F)cc3)nc1-c1ccc(F)cc1)C2 [Example 7.03.124],7.21
7,N#Cc1ccc(Cl)cc1NC1CCN(C(=O)Cn2nc(-c3ccc(F)cc3)nc2-c2ccc(F)cc2)CC1 [Example 7.02.24.],6.25
8,O=C(Cn1nc(-c2ccc(F)cc2)nc1-c1ccc(F)cc1)N1Cc2ccc(O)cc2C1 [Example 7.02.58.],6.67
9,O=C(Cn1nc(-c2ccc(F)cc2)nc1-c1ccc(F)cc1)N1CCN(c2nccc3sccc23)CC1 [Example 07.03.136.],6.30
10,Cc1nc2c(s1)CC(C)N(C(=O)Cn1nc(-c3ccc(F)c(C)c3)nc1-c1ccccc1)CC2 (centres unmarked) [Example 7.02.81.],6.76
11,O=C(Cn1nc(-c2ccc(F)cc2)nc1-c1ccc(F)cc1)N1CCC(OCC2CC2)CC1 [Example 7.02.06.],5.85
12,O=C(Cn1nc(-c2ccc(F)cc2)nc1-c1ccc(F)cc1)N1CCc2ccc(Cl)nc2CC1 [Example 7.03.028.],6.93
13,Cc1nnc(N2CCN(C(=O)Cn3nc(-c4ccc(F)cc4)nc3-c3ccc(F)cc3)CC2)o1 [Example 7.03.045.],6.81
14,Cn1c(=O)n(C2(C)CCN(C(=O)Cn3nc(-c4ccc(F)cc4)nc3-c3ccc(F)cc3)CC2)c2ccccc21 [Example 7.02.34.],5.84
15,COc1cccc(N2CCN(C(=O)Cn3nc(-c4ccc(F)cc4)nc3-c3ccc(F)cc3)CC2=O)c1 [Example 7.01.03.],6.55
16,COc1nc2c(s1)CCN(C(=O)Cn1nc(-c3ccc(F)c(C)c3)nc1-c1ccccc1)CC2 [Example 7.02.85.],7.48
17,O=C(Cn1nc(-c2ccc(F)cc2)nc1-c1ccc(F)cc1)N1CCC(Oc2ccccn2)CC1 [Example 7.03.009.],6.09
18,COc1cnc(C2=CCN(C(=O)Cn3nc(-c4ccc(F)c(C)c4)nc3C(C)C)CC2)nc1 [Example 7.03.080.],5.94
19,Cc1nc2c(o1)CN(C(=O)Cn1nc(-c3ccc(OC(F)F)cc3)nc1-c1ccccc1)C2 [Example 7.03.129],7.57
20,Cc1nc2c(s1)CN(C(=O)Cn1nc(-c3ccc(F)c(C)c3)nc1-c1ccccc1)C2 [Example 7.03.066.],7.15
21,Cc1nc2c(s1)CCN(C(=O)Cn1nc(-c3ccc(F)cc3)nc1-c1ccc(F)cn1)CC2 [Example 7.03.117.],6.05
22,Cc1nc2c(s1)CN(C(=O)Cn1nc(-c3ccc(F)cc3)nc1-c1ccc(F)cc1)CC2 [Example 7.02.56.],6.03

row,SMILES,pEC50
1,COc1ccc(-c2nc(-c3ccc(OC)cc3)n(CC(=O)N3Cc4nc(C)oc4C3)n2)cc1 [Example 7.03.133],6.98
2,"O=C(Cn1nc(-c2ccc(F)cc2)nc1-c1ccc(F)cc1)N1CCN(C2=NCCCS2)CC1 [Example 7.05.01., 2-(3,5-bis-(4-Fluoro-phenyl)-(1,2,4)triazol-1-yl]-1-[4-(5,6-dihydro-4H-(1,3)thiazin-2-yl)-piperazin-1-yl]-ethanone]",5.77
3,Nc1nnc(C2CCN(C(=O)Cn3nc(-c4ccc(F)cc4)nc3-c3ccc(F)cc3)CC2)o1 [Example 7.02.45.],6.00
4,Cc1nc2c(s1)CN(C(=O)Cn1nc(-c3ccc(F)c(C)c3)nc1C1CCC(C)CC1)C2 (centres unmarked) [Example 7.03.091.],5.77
5,Cc1nc2c(s1)CCN(C(=O)Cn1nc(-c3ccc(F)c(C)c3)nc1-c1ccc(F)c(C)c1)CC2 [Example 7.03.084.],7.28
6,O=C(Cn1nc(-c2ccc(F)cc2)nc1-c1ccc(F)cc1)N1CCC(c2ccon2)CC1 [Example 7.02.52.],6.33
7,Cc1nc2c(s1)CCN(C(=O)Cn1nc(-c3ccc(F)c(C)c3)nc1C1CCC(F)(F)CC1)CC2 [Example 7.03.097.],6.30
8,Cc1nc2c(s1)CCN(C(=O)Cn1nc(-c3ccc(F)c(C)c3)nc1CC(C)C)CC2 [Example 7.03.098.],6.65
9,O=C(Cn1nc(-c2ccc(F)cc2)nc1-c1ccc(F)cc1)N1CCN(c2ncnc3sccc23)CC1 [Example 7.02.74.],6.10
10,Cc1nnc(N2CCN(C(=O)Cn3nc(-c4ccc(OC(F)F)cc4)nc3-c3ccccc3)CC2)o1 [Example 7.03.134],6.89
11,CCCCCc1nc(-c2ccc(F)c(C)c2)nn1CC(=O)N1Cc2nc(C)oc2C1 [Example 7.03.125],6.82
12,Cn1ncc2c1CN(C(=O)Cn1nc(-c3ccc(F)cc3)nc1-c1ccc(F)cc1)C2 [Example 7.02.49.],5.87
13,O=C(Cn1nc(-c2ccc(F)cc2)nc1-c1ccc(F)cc1)N1CCC(C(O)c2ccccc2)CC1 (centres unmarked) [Example 7.03.004.],5.97
14,CCc1nc2c(s1)CCN(C(=O)Cn1nc(-c3ccc(F)cc3)nc1-c1ccc(F)cc1)CC2 [Example 7.03.030.],7.43
15,CC(C)c1nnc(C2CCN(C(=O)Cn3nc(-c4ccc(F)cc4)nc3-c3ccc(F)cc3)CC2)o1 [Example 7.03.033.],6.32
16,CC(=O)Nc1nc2c(s1)CCN(C(=O)Cn1nc(-c3ccc(F)c(C)c3)nc1-c1ccccc1)CC2 [Example 7.02.77.],6.63
17,O=C(Cn1nc(-c2ccc(F)cc2)nc1-c1ccc(F)cc1)N1CCC(c2nnc(-c3ccccc3)o2)CC1 [Example 7.03.008.],6.12
18,Nc1nc2c(s1)CN(C(=O)Cn1nc(-c3ccc(F)cc3)nc1-c1ccc(F)cc1)CC2 [Example 7.02.42.],5.91
19,O=C(Cn1nc(-c2ccc(F)cc2)nc1-c1ccc(F)cc1)N1CCN(c2nccc3occc23)CC1 [Example 07.03.137.],6.47
20,Cc1noc(C2CCN(C(=O)Cn3nc(-c4ccc(F)cc4)nc3-c3ccc(F)cc3)CC2)n1 [Example 7.02.61.],6.29
